Results: patent US12331044B2, “Inhibitors of histone deacetylase useful for the treatment or prevention of HIV infection” (Merck Sharp & Dohme LLC, priority 2018, dated 2025)
Like-named read-outs stand apart in the source and are kept apart here.

Legend:
HDAC6 = HDAC6 (Homo sapiens (Human), UniProt Q9UBN7); assay: biochemical
human HDAC1 = human HDAC1 (Homo sapiens (Human), UniProt Q13547); assay: biochemical
human HDAC8 = human HDAC8 (Homo sapiens (Human), UniProt Q9BY41); assay: HDAC8 inhibition assay (modified FLUOR DE LYS, 384-well); format: biochemical; conditions: […] nM enzyme, 200 μM substrate BML-KI178, 3 h pre-incubation; read-out: HDAC8 IC50
Chain of human HDAC8 (Q9BY41 whole entry): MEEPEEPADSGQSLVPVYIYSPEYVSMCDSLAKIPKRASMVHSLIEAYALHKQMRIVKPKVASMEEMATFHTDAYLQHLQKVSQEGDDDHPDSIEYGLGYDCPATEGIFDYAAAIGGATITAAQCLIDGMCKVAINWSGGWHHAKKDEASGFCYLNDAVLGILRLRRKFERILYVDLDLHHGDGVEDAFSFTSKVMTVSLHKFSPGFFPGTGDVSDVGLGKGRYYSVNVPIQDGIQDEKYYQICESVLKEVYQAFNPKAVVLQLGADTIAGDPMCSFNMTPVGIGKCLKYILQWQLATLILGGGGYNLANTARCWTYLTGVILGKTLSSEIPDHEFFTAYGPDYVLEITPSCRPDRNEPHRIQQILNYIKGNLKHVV

[1] = molecular target: human HDAC3/SMRT heterodimer (Homo sapiens (Human), UniProt O15379); assay: biochemical
Chain of human HDAC3/SMRT heterodimer (O15379 whole entry): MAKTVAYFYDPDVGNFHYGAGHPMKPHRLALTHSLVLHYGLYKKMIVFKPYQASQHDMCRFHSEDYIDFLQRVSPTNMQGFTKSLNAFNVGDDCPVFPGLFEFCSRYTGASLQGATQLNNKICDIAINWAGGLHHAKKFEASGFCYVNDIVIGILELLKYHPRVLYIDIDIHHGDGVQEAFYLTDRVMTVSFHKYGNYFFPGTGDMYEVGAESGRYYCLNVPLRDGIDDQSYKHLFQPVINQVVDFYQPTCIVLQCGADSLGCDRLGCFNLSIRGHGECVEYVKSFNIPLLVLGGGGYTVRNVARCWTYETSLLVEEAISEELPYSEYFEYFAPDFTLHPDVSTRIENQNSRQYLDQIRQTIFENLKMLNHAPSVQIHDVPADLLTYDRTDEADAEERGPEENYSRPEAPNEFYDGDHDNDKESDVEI
Chain of human HDAC3/SMRT heterodimer (Q9Y618 1-899 partner): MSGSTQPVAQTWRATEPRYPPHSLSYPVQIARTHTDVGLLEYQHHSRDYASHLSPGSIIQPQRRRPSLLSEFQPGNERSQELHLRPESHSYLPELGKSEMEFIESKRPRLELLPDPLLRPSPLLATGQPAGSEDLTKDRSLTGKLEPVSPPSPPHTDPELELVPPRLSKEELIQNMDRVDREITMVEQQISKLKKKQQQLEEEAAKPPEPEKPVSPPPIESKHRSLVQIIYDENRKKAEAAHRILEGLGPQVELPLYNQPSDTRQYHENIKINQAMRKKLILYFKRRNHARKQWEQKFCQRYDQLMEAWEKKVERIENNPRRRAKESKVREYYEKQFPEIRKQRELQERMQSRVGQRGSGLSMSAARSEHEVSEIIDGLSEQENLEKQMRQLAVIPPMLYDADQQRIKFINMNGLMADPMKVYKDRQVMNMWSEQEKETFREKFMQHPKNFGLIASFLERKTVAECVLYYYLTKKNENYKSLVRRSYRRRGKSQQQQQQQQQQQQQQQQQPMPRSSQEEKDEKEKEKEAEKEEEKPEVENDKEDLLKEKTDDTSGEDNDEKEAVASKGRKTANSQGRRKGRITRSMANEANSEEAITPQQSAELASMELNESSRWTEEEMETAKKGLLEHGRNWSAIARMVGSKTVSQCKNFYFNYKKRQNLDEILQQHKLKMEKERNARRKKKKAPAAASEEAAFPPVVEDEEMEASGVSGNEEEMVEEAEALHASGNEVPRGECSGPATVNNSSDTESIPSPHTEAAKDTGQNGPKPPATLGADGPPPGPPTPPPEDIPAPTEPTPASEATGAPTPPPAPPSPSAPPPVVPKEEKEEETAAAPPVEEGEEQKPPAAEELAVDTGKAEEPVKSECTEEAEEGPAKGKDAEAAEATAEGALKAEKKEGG

KARN cells (Jurkat 2C4) = conditions: luciferase induction, 2 μM SAHA = 100%
human HDAC2 = human HDAC2 (Homo sapiens (Human), UniProt Q92769); assay: HDAC2 inhibition assay (modified FLUOR DE LYS, 384-well); format: biochemical; conditions: […] nM enzyme, 40 μM substrate BML-KI104, 3 h pre-incubation; read-out: HDAC2 IC50
Chain of human HDAC2 (Q92769 whole entry): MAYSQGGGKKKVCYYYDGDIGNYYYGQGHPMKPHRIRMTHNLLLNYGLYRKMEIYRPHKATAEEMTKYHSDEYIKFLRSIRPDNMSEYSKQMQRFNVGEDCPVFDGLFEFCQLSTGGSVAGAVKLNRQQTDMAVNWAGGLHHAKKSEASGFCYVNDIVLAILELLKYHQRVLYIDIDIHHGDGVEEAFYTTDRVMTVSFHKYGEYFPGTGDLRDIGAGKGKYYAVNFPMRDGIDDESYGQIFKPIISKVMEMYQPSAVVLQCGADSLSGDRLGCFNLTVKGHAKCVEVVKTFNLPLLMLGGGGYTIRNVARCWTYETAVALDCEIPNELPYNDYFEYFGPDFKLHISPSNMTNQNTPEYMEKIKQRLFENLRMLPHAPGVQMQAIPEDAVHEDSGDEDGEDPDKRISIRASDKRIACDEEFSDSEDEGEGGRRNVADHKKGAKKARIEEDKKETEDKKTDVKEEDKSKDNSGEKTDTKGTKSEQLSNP

Chain of human HDAC1 (Q13547 whole entry): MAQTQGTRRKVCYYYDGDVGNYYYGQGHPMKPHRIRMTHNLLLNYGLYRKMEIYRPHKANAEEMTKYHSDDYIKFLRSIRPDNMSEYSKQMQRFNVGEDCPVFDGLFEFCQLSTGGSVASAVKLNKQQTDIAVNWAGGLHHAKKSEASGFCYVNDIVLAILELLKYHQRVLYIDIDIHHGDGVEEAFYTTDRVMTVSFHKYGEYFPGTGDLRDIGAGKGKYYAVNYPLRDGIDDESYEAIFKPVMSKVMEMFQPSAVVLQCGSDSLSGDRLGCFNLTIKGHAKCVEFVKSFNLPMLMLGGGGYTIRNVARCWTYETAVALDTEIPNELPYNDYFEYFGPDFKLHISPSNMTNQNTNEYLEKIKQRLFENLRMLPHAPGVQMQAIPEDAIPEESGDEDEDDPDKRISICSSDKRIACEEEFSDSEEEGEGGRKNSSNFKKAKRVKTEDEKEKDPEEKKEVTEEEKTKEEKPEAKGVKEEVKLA
Chain of HDAC6 (Q9UBN7 whole entry): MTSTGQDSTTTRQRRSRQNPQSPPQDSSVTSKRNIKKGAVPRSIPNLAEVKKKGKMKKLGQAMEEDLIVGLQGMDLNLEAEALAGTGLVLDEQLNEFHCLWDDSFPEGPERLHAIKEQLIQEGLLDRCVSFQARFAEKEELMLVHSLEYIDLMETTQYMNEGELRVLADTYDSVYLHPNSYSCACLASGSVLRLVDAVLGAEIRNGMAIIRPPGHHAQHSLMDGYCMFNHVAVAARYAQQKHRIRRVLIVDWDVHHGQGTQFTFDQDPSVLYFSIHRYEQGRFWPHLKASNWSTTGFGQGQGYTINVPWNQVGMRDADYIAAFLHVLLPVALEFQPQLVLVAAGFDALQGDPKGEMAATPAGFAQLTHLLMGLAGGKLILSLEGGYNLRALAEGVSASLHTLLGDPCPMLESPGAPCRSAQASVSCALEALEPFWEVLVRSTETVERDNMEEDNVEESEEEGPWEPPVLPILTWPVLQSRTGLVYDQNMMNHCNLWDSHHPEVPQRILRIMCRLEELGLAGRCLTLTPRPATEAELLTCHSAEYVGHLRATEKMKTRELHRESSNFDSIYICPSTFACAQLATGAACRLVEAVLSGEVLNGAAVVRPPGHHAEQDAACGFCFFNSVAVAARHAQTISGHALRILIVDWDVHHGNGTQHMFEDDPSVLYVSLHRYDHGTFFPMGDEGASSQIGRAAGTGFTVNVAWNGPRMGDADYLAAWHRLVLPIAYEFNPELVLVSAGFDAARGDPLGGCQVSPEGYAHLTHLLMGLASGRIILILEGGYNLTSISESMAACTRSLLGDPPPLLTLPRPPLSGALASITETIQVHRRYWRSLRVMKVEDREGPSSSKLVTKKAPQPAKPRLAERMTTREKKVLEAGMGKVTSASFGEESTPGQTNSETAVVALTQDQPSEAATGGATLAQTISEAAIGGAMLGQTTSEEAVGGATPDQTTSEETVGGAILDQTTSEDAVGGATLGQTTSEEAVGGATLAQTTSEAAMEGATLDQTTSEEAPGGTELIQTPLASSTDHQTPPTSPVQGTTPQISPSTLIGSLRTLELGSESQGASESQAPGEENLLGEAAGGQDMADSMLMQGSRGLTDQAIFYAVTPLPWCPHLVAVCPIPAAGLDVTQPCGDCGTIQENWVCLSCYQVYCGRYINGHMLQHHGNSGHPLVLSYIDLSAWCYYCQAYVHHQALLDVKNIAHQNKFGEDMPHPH

Cc1ccc2cc(-c3cnc([C@H](CCCCCC(=O)c4ncco4)NC(=O)[C@H]4CC45CCN(C)CC5)o3)ccc2n1 [Example 109, (S)-6-methyl-N-((S)-1-(5-(2-methylquinolin-6-yl)oxazol-2-yl)-7-(oxazol-2-yl)-7-oxoheptyl)-6-azaspiro[2.5]octane-1-carboxamide]
IC50 (HDAC6): 23000 nM | IC50 (human HDAC1): 7.5 nM | IC50 (human HDAC8): 5000 nM | IC50 [1]: 7.5 nM | EC50 (KARN cells (Jurkat 2C4); read-out: Karn EC50 nM 0.1% NHS, 0.1% normal human serum): 1700 nM | EC50 (KARN cells (Jurkat 2C4); read-out: Karn EC50 nM 5% NHS, 5% normal human serum): 2500 nM | IC50 (human HDAC2): 39 nM
